Laboratory results taken from article PMC7044277 (Nature Communications, 2020).
Values joined by “and” are separate entries in the source; they are usually repeats but may differ in a detail not shown here. Equal entries are not always repeated.

Key:
Assay type in all cases: cell-based
5HT2C = biological target: T1, 5HT2C (Homo sapiens, UniProt P28335); assay: β-arrestin2 recruitment (Tango); conditions: Fig_S10m; for β-arrestin2 recruitment response in presence of serotonin (replicate values): +10μM serotonin; for β-arrestin2 recruitment response (dose-response source data, replicate values): drug alone
T1 sequence (P28335 33-458): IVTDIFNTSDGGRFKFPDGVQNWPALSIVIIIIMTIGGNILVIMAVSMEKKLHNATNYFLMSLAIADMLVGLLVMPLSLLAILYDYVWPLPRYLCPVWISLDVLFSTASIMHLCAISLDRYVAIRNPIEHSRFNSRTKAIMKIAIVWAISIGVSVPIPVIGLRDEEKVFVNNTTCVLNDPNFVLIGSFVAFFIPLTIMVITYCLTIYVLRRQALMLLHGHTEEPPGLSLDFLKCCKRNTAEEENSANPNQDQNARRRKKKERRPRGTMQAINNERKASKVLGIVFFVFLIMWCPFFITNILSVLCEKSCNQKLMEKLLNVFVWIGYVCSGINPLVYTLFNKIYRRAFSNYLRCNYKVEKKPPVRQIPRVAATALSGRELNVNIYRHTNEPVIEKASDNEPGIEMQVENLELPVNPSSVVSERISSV

5HT7A = biological target: T2, 5HT7A (Homo sapiens, UniProt P34969); assay: β-arrestin2 recruitment (Tango); conditions: for β-arrestin2 recruitment response, replicate points of concentration-response curve: Fig_S10q, agonist mode
T2 construct: expressed in transfected cells; host or cells: HTLA cells expressing TEV-fused β-arrestin2
T2 sequence (P34969 1-445 isoform P34969-2): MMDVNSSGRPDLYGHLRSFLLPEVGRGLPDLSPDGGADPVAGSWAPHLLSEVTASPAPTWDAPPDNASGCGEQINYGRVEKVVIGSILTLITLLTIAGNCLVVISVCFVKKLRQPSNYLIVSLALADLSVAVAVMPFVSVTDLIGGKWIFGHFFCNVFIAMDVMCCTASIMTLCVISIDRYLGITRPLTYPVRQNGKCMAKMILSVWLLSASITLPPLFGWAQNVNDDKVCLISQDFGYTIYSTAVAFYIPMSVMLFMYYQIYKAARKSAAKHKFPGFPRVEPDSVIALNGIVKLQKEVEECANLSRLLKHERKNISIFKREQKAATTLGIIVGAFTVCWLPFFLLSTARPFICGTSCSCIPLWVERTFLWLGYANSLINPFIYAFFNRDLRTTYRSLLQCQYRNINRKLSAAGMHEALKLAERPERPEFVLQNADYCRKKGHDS

DRD2 S1935.42G = biological target: T3, DRD2 S1935.42G (Homo sapiens, UniProt P14416, S193G); assay: Gαi/o-mediated cAMP inhibition (GloSensor), mutant; conditions: DRD2 Ser5.42Gly; G-protein assay
T3 construct: expressed in transfected cells; host or cells: HEK293T (ATCC CRL-11268)
T3 sequence (P14416 whole entry S193G): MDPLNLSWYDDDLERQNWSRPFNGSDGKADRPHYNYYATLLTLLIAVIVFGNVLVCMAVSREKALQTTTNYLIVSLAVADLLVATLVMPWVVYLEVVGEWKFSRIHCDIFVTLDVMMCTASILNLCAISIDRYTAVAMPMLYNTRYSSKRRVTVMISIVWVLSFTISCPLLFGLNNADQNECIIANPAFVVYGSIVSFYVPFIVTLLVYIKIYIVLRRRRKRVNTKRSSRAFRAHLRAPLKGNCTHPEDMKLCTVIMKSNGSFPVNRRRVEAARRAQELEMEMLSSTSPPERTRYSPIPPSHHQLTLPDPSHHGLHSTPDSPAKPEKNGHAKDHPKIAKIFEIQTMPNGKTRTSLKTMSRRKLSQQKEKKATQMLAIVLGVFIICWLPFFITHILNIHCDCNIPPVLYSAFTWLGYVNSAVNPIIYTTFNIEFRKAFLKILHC

DRD2 S1945.43G = biological target: T4, DRD2 S1945.43G (Homo sapiens, UniProt P14416, S194G); assay: Gαi/o-mediated cAMP inhibition (GloSensor), mutant; conditions: DRD2 Ser5.43Gly; G-protein assay
T4 construct: expressed in transfected cells; host or cells: HEK293T (ATCC CRL-11268)
T4 sequence (P14416 whole entry S194G): as the sequence (P14416 whole entry S193G) above, with G193S, S194G counted along it

In the case of CCOc1cccc2cc([C@H](C)NCC3(O)CCCCC3)oc12 [O4SE6], the “β-arrestin2 recruitment response in presence of serotonin (replicate values)” value (5HT2C; Log[Drug] -5) was 45.7461 and 51.1482 and 53.4841 and 61.6893 and 54.4017 and 57.753 and 67.2866 and 83.7427 and 85.1445, the “β-arrestin2 recruitment response (dose-response source data, replicate values)” value (5HT2C; Log[Drug] -5) was -3.262 and -0.5555 and 0.5642 and 1.204 and -0.4664 and 1.061 and -2.805 and 1.039 and 3.566 and the “β-arrestin2 recruitment response in presence of serotonin (replicate values)” value (5HT2C; Log[Drug] -5.52) was 76.8132 and 54.1781 and 71.9421 and 67.2323 and 56.1903 and 49.3738 and 64.9568 and 69.9468 and 71.0617. For the same compound, the “β-arrestin2 recruitment response (dose-response source data, replicate values)” value (5HT2C; Log[Drug] -5.52) was -3.477 and -1.313 and -1.505 and -0.3021 and 0.7731 and -0.1754 and 1.049 and -1.9165 and -0.666, the “β-arrestin2 recruitment response in presence of serotonin (replicate values)” value (5HT2C; Log[Drug] -6) was 57.6708 and 60.6404 and 63.9932 and 75.4508 and 75.7722 and 57.215 and 86.3739 and 65.9717 and 77.801 and the “β-arrestin2 recruitment response (dose-response source data, replicate values)” value (5HT2C; Log[Drug] -6) was 0.1892 and -1.167 and -2.9638 and 0.5481 and 0.639 and 4.5826 and 1.774 and -1.813 and -1.0517. The “β-arrestin2 recruitment response in presence of serotonin (replicate values)” value (5HT2C; Log[Drug] -6.52) was 49.4392 and 65.2785 and 58.4136 and 69.39 and 55.9424 and 71.2915 and 76.7849 and 85.9817 and 94.9705, the “β-arrestin2 recruitment response (dose-response source data, replicate values)” value (5HT2C; Log[Drug] -6.52) was 3.199 and -0.222 and 0.3914 and 1.323 and 0.05601 and 0.9925 and -1.994 and 1.303 and -2.122 and the “β-arrestin2 recruitment response in presence of serotonin (replicate values)” value (5HT2C; Log[Drug] -7) was 67.4184 and 56.2577 and 61.082 and 74.1195 and 66.0313 and 86.1338 and 77.8195 and 67.5788 and 79.0331. The “β-arrestin2 recruitment response (dose-response source data, replicate values)” value (5HT2C; Log[Drug] -7) was -0.4648 and -1.599 and 4.168 and 0.2351 and 1.745 and 2.334 and 14.5501 and 3.184 and 0.1487, the “β-arrestin2 recruitment response in presence of serotonin (replicate values)” value (5HT2C; Log[Drug] -7.52) was 57.9508 and 62.7389 and 68.9932 and 62.9857 and 78.9582 and 61.3863 and 70.1719 and 83.8296 and 68.1225 and the “β-arrestin2 recruitment response (dose-response source data, replicate values)” value (5HT2C; Log[Drug] -7.52) was -1.179 and -0.8967 and -0.04778 and 2.819 and 2.117 and -0.4591 and 1.974 and -0.9095 and 6.65. For the same compound, the “β-arrestin2 recruitment response in presence of serotonin (replicate values)” value (5HT2C; Log[Drug] -8) was 70.2712 and 69.291 and 73.2872 and 71.712 and 66.0148 and 66.2452 and 79.2674 and 70.1943 and 78.2394, the “β-arrestin2 recruitment response (dose-response source data, replicate values)” value (5HT2C; Log[Drug] -8) was -1.7418 and -1.636 and 0.2046 and 0.909 and -0.4958 and 0.1891 and 1.914 and -0.383 and 4.332 and the “β-arrestin2 recruitment response in presence of serotonin (replicate values)” value (5HT2C; Log[Drug] -8.52) was 72.9942 and 69.4566 and 60.9768 and 61.1778 and 82.5318 and 58.5381 and 71.529 and 76.0793 and 77.135. The “β-arrestin2 recruitment response (dose-response source data, replicate values)” value (5HT2C; Log[Drug] -8.52) was -0.5405 and -0.709 and 2.709 and 0.684 and 1.936 and 3.627 and 2.573 and 6.06 and -0.7082, the “β-arrestin2 recruitment response in presence of serotonin (replicate values)” value (5HT2C; Log[Drug] -9) was 65.7886 and 59.3306 and 51.1636 and 117.587 and 77.0604 and 77.3487 and 69.8244 and 87.7165 and 82.2092 and the “β-arrestin2 recruitment response (dose-response source data, replicate values)” value (5HT2C; Log[Drug] -9) was -2.125 and 1.403 and -1.228 and 0.9062 and -0.6032 and 0.5546 and 2.207 and 4.8202 and 4.806. For the same compound, the “β-arrestin2 recruitment response in presence of serotonin (replicate values)” value (5HT2C; Log[Drug] -9.52) was 71.3301 and 78.8962 and 71.9628 and 82.1452 and 81.8826 and 58.8025 and 76.3992 and 91.8022 and 69.3558, the “β-arrestin2 recruitment response (dose-response source data, replicate values)” value (5HT2C; Log[Drug] -9.52) was -0.7505 and -1.198 and -1.073 and 2.378 and 0.7896 and 2.704 and -0.6423 and 0.9477 and 0.7345 and the “concentration at which the receptor is activated” value (5HT7A; 5HT7A, agonist activity only at high concentrations) was “over 1 μM”. The “β-arrestin2 recruitment response, replicate points of concentration-response curve” value (5HT7A; Log[Drug] -8.52) was -17.0653 and -8.2658 and 45.2148 and -20.2418 and -21.803 and -0.7194 and -2.896 and -5.6 and 11.1273 and 4.271 and -5.097 and 41.8171, the “β-arrestin2 recruitment response, replicate points of concentration-response curve” value (5HT7A; Log[Drug] -9) was -5.443 and 2.933 and -8.226 and -2.556 and -7.477 and 46.4452 and 15.6099 and 24.9983 and 34.962 and -18.0177 and 28.5192 and 18.5487 and the “β-arrestin2 recruitment response, replicate points of concentration-response curve” value (5HT7A; Log[Drug] -9.52) was -12.1477 and -17.9982 and -14.9702 and 11.6094 and 28.1779 and -35.8001 and 6.565 and -15.7686 and -5.626 and -8.555 and 44.6962 and -16.9086. For the same compound, the “β-arrestin2 recruitment response, replicate points of concentration-response curve” value (5HT7A; Log[Drug] -10) was 8.096 and 0.4862 and 3.854 and 5.12 and -39.6418 and 11.9538 and 0.1785 and 14.2612 and 32.5752 and 35.9646 and 2.796 and -2.0885, the “β-arrestin2 recruitment response, replicate points of concentration-response curve” value (5HT7A; Log[Drug] -10.52) was -7.874 and -13.6459 and -8.622 and -2.931 and 11.0507 and -27.4126 and -0.1587 and -15.0413 and -19.8744 and -43.7994 and 23.1032 and 11.941 and the “β-arrestin2 recruitment response, replicate points of concentration-response curve” value (5HT7A; Log[Drug] -11) was -18.3698 and 12.5825 and -5.609 and -19.6985 and -4.821 and 50.3406 and -7.299 and -5.302 and 7.068 and 22.7847 and 5.345 and 29.9587. For the same compound, the “β-arrestin2 recruitment response, replicate points of concentration-response curve” value (5HT7A; Log[Drug] -11.52) was -11.7405 and -3.06 and 5.3959 and -7.492 and 32.3027 and 44.3713 and -10.4331 and 15.1471 and 38.5521 and -11.882 and -21.4277 and -18.6431, the “β-arrestin2 recruitment response, replicate points of concentration-response curve” value (5HT7A; Log[Drug] -12) was -10.8669 and -8.214 and -4.091 and -12.7879 and 18.5659 and 87.5029 and 6.479 and 24.6612 and 1.765 and 32.6018 and 45.9115 and -9.546 and the “agonism after serine to glycine substitution” value (DRD2 S1935.42G) was “impaired”. For the same compound, the “agonism after serine to glycine substitution” value (DRD2 S1945.43G) was “impaired”.
